# Assay results from patent US12234484B2, “Culture medium for pluripotent stem cells” (PROMOCELL GMBH, priority 2017, dated 2025).
# Legend:
# stem cells = details: cultured in the absence of FGF2; cited from earlier work
# [1] = cited from earlier work; for biological half-life: under cell culture conditions
# [2] = system: hiPS cell line SBI #SC101A-1; assay: hPSC culture, microscopic analysis of morphological growth pattern and proliferation; assay type: cell-based, human; details: defined, feeder-free culture on vitronectin; Example 1 medium containing only the named factor(s); no FGF-2
# Method: The culture vessel was coated with 0.5 μg/cm^2 of recombinant human vitronectin as ECM. For this, 100 μl of a diluted vitronectin solution per cm^2 of culture vessel surface is applied to the culture vessel with. The coated culture vessel is left for 2 hours at room temperature. The vitronectin solution was aspirated just before seeding the cells.
# The cell line used in this experiment is the human foreskin fibroblast derived hiPS cell line SBI #SC101A-1 (obtainable from System Biosciences (SBI), Palo Alto, under the defined reference number).
# The stem cell culture medium was prepared as described in Example 1. For cryopreserved cells, a ROCK-Inhibitor (10 μM Y-27632 or 2 μM Thiazovivin) is added to the stem cell culture medium. Alternatively, for existing proliferating cultures a clump passage was performed as described in Example 3 below.
# The hPSCs were seeded in a 1:2 to 1:3 ratio (relative to the volume of the tissue culture vessel) into the ECM coated tissue culture vessel using an appropriate amount of culture medium. For example, 2-3 ml per well are used for 6-well plates and 15-25 ml for T-75 flasks.
# After plating, the subcultured hPSCs were allowed to attach overnight (12-24 hours).
# A medium change was performed: the stem cell culture medium including non-attached cells was aspirated, washed once with Dulbecco's PBS, w/o Ca^2+/Mg^2+ and the cells were provided with fresh culture medium (w/o ROCK-Inhibitors).
# A media change was performed every 1-3 days.
# The stem cell culture medium was aspirated and the hPSCs were washed twice with Dulbecco's PBS, w/o Ca^2+/Mg^2+. Next, 200-300 μl/cm^2 of dissociation buffer was added and the solution was incubated for 6-10 minutes in the incubator at 37° C. and 5% CO2. The dissociation buffer was carefully aspirated and 1-5 ml of fresh culture medium was added. The colonies were flushed away from the surface using a serological pipet. In order to maintain cell clumps of sufficient size flushing of more than 4-5 times was avoided. Then, cell clumps were dispensed into new ECM-coated culture vessels with fresh stem cell culture medium and the culture was continued according to the cell attachment step (step 2.3) of Example 2.
# Induced pluripotent stem cells were cultured in the presence of the stem cell culture medium according to Example 1 without trimipramine in order to reproduce published observations that activin a on its own cannot fully support undifferentiated maintenance of most hPSC lines (Vallier et al., 2005; Xiao et al., 2006). Initiation of the hPSC culture was performed according to Example 2, followed by subculturing the cells according to Example 3.
# It was also aimed to reproduce the published partial self-renewal support capabilities of trimipramine in human pluripotent stem cells (Kumagai et al., 2013). […]
molecule,measurement,setting,value
CCN(CC)CCCC(C)Nc1c2ccc(Cl)cc2nc2ccc(OC)cc12 (centres unmarked) [mepacrine],"expression of pluripotency markers SSEA-3, SSEA-4 TRA-1-60, TRA-1-81 and OCT4",stem cells,induce the expression of known pluripotency markers
CCN(CC)C(C)CN1c2ccccc2Sc2ccccc21 (centres unmarked) [profenamine],"expression of pluripotency markers SSEA-3, SSEA-4 TRA-1-60, TRA-1-81 and OCT4",stem cells,induce the expression of known pluripotency markers
CC(CN1c2ccccc2Sc2ccccc21)N(C)C (centres unmarked) [promethazine],"expression of pluripotency markers SSEA-3, SSEA-4 TRA-1-60, TRA-1-81 and OCT4",stem cells,induce the expression of known pluripotency markers
CC(CN(C)C)CN1c2ccccc2CCc2ccccc21 (centres unmarked) [trimipramine],half-life,[1],23 h
same,"expression of pluripotency markers SSEA-3, SSEA-4 TRA-1-60, TRA-1-81 and OCT4",stem cells,induce the expression of known pluripotency markers
same,cell proliferation / expansion of hPSC,[2],not sufficient to effectively expand the human pluripotent stem cells
same,maintenance of undifferentiated state (morphological phenotype),[2],able to maintain the prototypical pluripotent morphological phenotype
FGF-2: growth factor (FGFR ligand) traditionally used in hPSC media,biological half-life,[1],5-7 hours
TGF-β1: growth factor (ALK5 ligand) traditionally used in hPSC media,biological half-life,[1],50 minutes
"activin a: homodimer of the inhibin beta A subunit (UniProtKB P08476), member of the TGF-β superfamily (protein, UniProt P08476 311-426, looked up, Inhibin beta A chain, homodimer of the inhibin beta A subunit (UniProtKB P08476), member of the TGF-β superfamily) Inhibin beta A chain: GLECDGKVNICCKKQFFVSFKDIGWNDWIIAPSGYHANYCEGECPSHIAGTSGSSLSFHSTVINHYRMRGHSPFANLKSCCVPTKLRPMSMLYYDDGQNIIKKDIQNMIVEECGCS",cell proliferation / expansion of hPSC,[2],significant cell proliferation
same,maintenance of undifferentiated state (morphological phenotype),[2],not able to robustly support the maintenance of the tested hPSC line in an undifferentiated state
